In patent US12324818B2, “Generation of alveolar epithelial type 1 (AT1) cells” (TRUSTEES OF BOSTON UNIVERSITY, priority 2022, dated 2025):

B1: keratinocyte growth factor (KGF) protein (protein, UniProt P21781 32-194, looked up)
Fibroblast growth factor 7: CNDMTPEQMATNVNCSSPERHTRSYDYMEGGDIRVRRLFCRTQWYLRIDKRGKVKGTQEMKNNYNIMEIRTVAVGIVAIKGVESEFYLAMNKEGKLYAKKECNEDCNFKELILENHYNTYASAKWTHNGGEMFVALNQKGIPVRGKKTKKEQKTAHFLPMAIT
notes: recombinant human keratinocyte growth factor

Columns and labels:
Format in all cases: cell-based, human
iAT2s [1] = test: Withdrawal of Chir or KGF in YAP5SA-transduced BU3 NGAT iAT2s; settings: YAP5SA differentiation model
Description: FIG. 13A) BU3 NGAT iAT2s were passaged into 3D Matrigel in CK+DCI for 3 days, and then media was switched to media containing LATS-IN-1 and either Chir or KGF and grown for a further 11 days. Representative flow cytometry of NKX2-1GFPand AGERtdTomato. FIG. 13B) Quantification of AGERtdTomatocompared to CK DCI+L and DCI+L quantification in FIGS. 5A-5L. (N=3 per condition, 1 way ANOVA). FIG. 13C) BU3 NGAT iAT2s were transduced with either WT YAP or YAP5SA lentivirus in suspension with polybrene for 4 hours and then replated into 3D Matrigel in CK DCI. After 5 days, media was changed to withdraw one or both growth factors from the media. Cells were analyzed 11 days post media change. FIG. 13D) Cell counts of WT YAP and YAP5SA transduced cells in different medias (2 way ANOVA). First series is CK+DCI, second series is C+DCI, third series is K+DCI, fourth series is DCI. FIG. 13E) Representative flow cytometry of NKX2-1GFP and AGERtdTomato. FIG. 13F) Quantification of AGERtdTomatopercentage and Mean Fluorescence Intensity following YAP5SA transduction. (2 way ANOVA). First series is CK+DCI, second series is C+DCI, third series is K+DCI, fourth series is DCI. FIGS. 13G-13H) Gene expression of AT1 markers, YAP downstream targets, and AT2 markers by whole well RT-qPCR. (N=3, 2 way ANOVA). First series is CK+DCI, second series is C+DCI, third series is K+DCI, fourth series is DCI. […]

iAT2s [2] = test: AGERtdTomato reporter induction in BU3 NGAT iAT2s (flow cytometry, live imaging); settings: for effect on AGERtdTomato percentage and MFI: media containing L
Description: FIG. 5A) BU3 NGAT iAT2s were passaged as usual into 3D Matrigel with CK+DCI+RI medium for 3 days. Medium was then kept the same or switched to LATS inhibitor-based media. CK DCI+L, DCI, or L DCI. (C=Chir, K=rhKGF, L=LATS-IN-1; “DCI” as defined in FIG. 2). FIG. 5B) Representative live fluorescence microscopy of iAT2s (BU3 NGAT clone) at 9 days after changing to the indicated medium, either without (FIG. 5B) or with (FIG. 5C) YAP5SA transduction (Scale bars=500 um in B; 50 um in FIG. 5C). FIG. 5D) Representative flow cytometry plots of NKX2-1GFP and AGERtdTomato 9 days post after changing to cach indicate medium. FIG. 5E) Cell counts and flow cytometry quantification of AGER tdTomato+ percentage and Mean Fluorescence Intensity (MFI) 9 days post medium change. One way ANOVA, N=3 per condition. FIG. 5F) Gene expression of AT1 and AT2 markers by whole well RT-qPCR. (1 way ANOVA, N=3 per condition). FIG. 5G) Whole mount immunofluorescence microscopy of BU3 NGAT organoids in L+DCI. Scale bar=50 um. FIG. 5H) Primary adult human AT2 cells (1° AT2s) were cultured as described 5 and 7 days post plating, medium was changed to published, human-serum containing Alveolar Differentiation Media (ADM) or L+DCI. Whole well RT-qPCR of selected genes 7 days post medium change. 1 way ANOVA, N=3 per condition. FIG. 5I) Experimental schematic: BU3 NGAT iAT1s were grown in L+DCI for 10 days, sorted on AGERtdTomato, and then plated in 3D Matrigel in either L+DCI or CK+DCI. Outgrowths of sorted cells were analyzed after an additional 9 days. FIG. 5J) Representative flow cytometry plots of AGERtdTomato+ outgrowth from (FIG. 5I). FIG. 5K) Quantification of indicated fluorescence (FACS), cell counts, or transcript expression (FIG. 5LL; whole well RT-qPCR) of cells from (FIG. 5I). Control sorted iAT1s in L are freshly sorted AGERtdTomato+ cells after 9 days in L+DCI. (N=3 per condition; K=Student's t test; L=1 way ANOVA). *p<0.05, **p<0.01, ***p<0.001, and […] for all panels.
(§1) iPSCs were first differentiated into iAT2s and passaged as above in 3D cultures in iAT2 medium (CK+DCI) supplemented for the first 3 days after passaging with 10 uM Y-27632 (Tocris). To generate iAT1s, 3 days after passaging iAT2s in 3D, the medium was replaced with “L+DCI”, consisting of [10 uM LATS-IN-1 (“L”; MedChemExpress Cat. No.: HY-138489), 50 nM dexamethasone (“D”; Sigma-Aldrich), 0.1 mM 8-bromoadenosine 3′,5′cyclic monophosphate sodium salt (Sigma-Aldrich; “C”), and 0.1 mM 3-isobutyl-1-methylxanthine (IBMX; Sigma-Aldrich; “I”)]. Cells were cultured up to 16 days in L+DCI in 3D while monitoring AGERtdTomatoexpression as detailed in the text.
0.05% trypsin was used to generate single cell suspensions which were resuspended in sort buffer [HBSS (ThermoFisher) with 2% FBS, 10 uM Y-27632 (Tocris)] with Live/dead stain [Calcein blue (Life technologies) or DRAQ7 (Abcam)]. Cells were sorted based on reporter expression: NKX2-1GFP and AGERtdTomatofor BU3 NGAT, or SFTPCtdTomatofor SPC2B2, as indicated in the text. Cell sorting was performed on a Moflo Astrios EQ (Beckman Coulter) and flow cytometry analysis was performed on an LSRII SORP (BD Biosciences) at the Boston University Flow Cytometry Core Facility. For Edu assays, the Click-iT Plus EdU Alexa Fluor 647 Flow Cytometry Assay Kit (Thermo Fisher Scientific) was used with EdU added 24 hours before cell isolation, and cells fixed in 4% paraformaldehyde (PFA) were analyzed on a Stratedigm (S1000EXI) cytometer with post-processing using Flow Jo software (BD Biosciences). For all other analyses, live non-fixed cells were sorted or analyzed as indicated in the text.

iAT2s [3] = test: Whole well RT-qPCR of AT1/AT2 markers in iAT2s in LATS inhibitor media
Protocol: as §1
For RT-qPCR, whole well or sorted cells were collected and stored in Qiazol (Qiagen, 79306) prior to RNA isolation using RNeasy Plus Mini Kit according to the manufacturer's protocol (Qiagen, 74104), cDNA was then synthesized using MultiScribe™ Reverse Transcriptase (ThermoFisher 4311235). A QuantStudio instrument (Applied Biosciences) and predesigned Taqman probes were used and run in a 384-well format for 40 cycles. Relative expression was normalized to an 18S control and fold change over control cells was calculated using 2-ΔΔCt. Where indicated in the text, RNA extracts from adult primary human distal lung tissue explants, the kind gift of Barry Stripp (Cedars Sinai, Los Angeles) were employed as RT-qPCR controls. RNA was isolated via RNeasy Plus Mini Kit following manufacturer's protocol.

Molecule | effect on AGERtdTomato and AT1 markers by bulk RT-qPCR (iAT2s [1]) | effect on AGERtdTomato percentage and MFI (iAT2s [2]) | NKX2-1 expression (iAT2s [3]; iAT2 media vs medias containing LATS-IN-1) | SFTPC expression (iAT2s [3]; medias containing LATS-IN-1) | AGER, CAV1, PDPN, and CLIC5 expression (iAT2s [3]; whole well RT-qPCR, wells containing the LATS inhibitor) | AGERtdTomato induction, % of the NKX2-1GFP+ cells (iAT2s [2]; BU3 NGAT iAT2s in L+DCI, increasing over the following 2 weeks) [%] | time to detectable AGERtdTomato induction in the NKX2-1+ population (iAT2s [2]; L supplementation of iAT2s) [h] | time to morphologic changes resembling YAP5SA-transduced cells (iAT2s [2]; L supplementation of iAT2s) [hours] | iAT2s in which the AT1 program is driven (iAT2s [2]; complete serum free defined media containing LATS inhibitor) | dose yielding greatest frequency and brightness (MFI) of NKX2-1GFP/AGERtdTomato+ cells (iAT2s [2]; dose response testing, medium replaced day 3 after passaging, 2 weeks post passage) [µM]
Cc1c[nH]c(-c2cnc(NCCNc3ccc(C#N)cn3)nc2-c2ccc(Cl)cc2Cl)n1 [Chir, CHIR99021] | inhibitory effects | significantly inhibitory |  |  |  |  |  |  |  | 
O=C(N=c1sccn1Cc1ccccc1)c1c[nH]c2ncccc12 [LATS-IN-1, N-(3-benzylthiazol-2(3H)-ylidene)-1H-pyrrolo[2,3-b]pyridine-3-carboxamide] |  |  | unchanged | decreased | significantly upregulated | 84.97±1.23 | ≤ 72 | ≤ 48 | up to 97% | 10
B1 | inhibitory effects | significantly inhibitory |  |  |  |  |  |  |  | 
